The results in this text go back to US7834045B2, “N-substituted pyrazolyl carboxanilides” (Bayer CropScience AG, priority 2003, dated 2010).

One series relates to Puccinia recondita. Briefly: Puccinia test (wheat)/protective. The settings on record: protective, application rate 500 g/ha, evaluation 10 days after inoculation. In kind it is in vivo. As for the experimental part: • Solvent: 25 parts by weight of N,N-dimethylacetamide • Emulsifier: 0.6 part by weight of alkylaryl polyglycol ether To produce a suitable preparation of active compound, 1 part by weight of active compound is mixed with the stated amounts of solvent and emulsifier, and the concentrate is diluted with water to the desired concentration. To test for protective activity, young plants are sprayed with the preparation of active compound at the stated application rate. After the spray coating has dried on, the plants are sprayed with a conidia suspension of Puccinia recondita. The plants remain in an incubation cabinet at 20° C. and 100% relative atmospheric humidity for 48 hours. The plants are then placed in a greenhouse at a temperature of about 20° C. and a relative atmospheric humidity of 80% to promote the development of rust pustules. Evaluation is carried out 10 days after the inoculation. 0% means an efficacy which corresponds to that of the control, whereas an efficacy of 100% means that no infection is observed.

The subject of a further series is Sphaerotheca fuliginea. Briefly: Sphaerotheca test (cucumber)/protective. The settings on record: protective, application rate 750 g/ha, evaluation 7 days after inoculation. It counts as in vivo. On the procedure: • Solvent: 49 parts by weight of N,N-dimethylformamide • Emulsifier: 1 part by weight of alkylaryl polyglycol ether To produce a suitable preparation of active compound, 1 part by weight of active compound is mixed with the stated amounts of solvent and emulsifier, and the concentrate is diluted with water to the desired concentration. To test for protective activity, young cucumber plants are sprayed with the preparation of active compound at the stated application rate. 1 day after the treatment, the plants are inoculated with a spore suspension of Sphaerotheca fuliginea. The plants are then placed in a greenhouse at 70% relative atmospheric humidity and a temperature of 23° C. Evaluation is carried out 7 days after the inoculation. 0% means an efficacy which corresponds to that of the control, whereas an efficacy of 100% means that no infection is observed.

Series [1] in a line: log P determination by HPLC on reversed-phase column (EEC Directive 79/831 Annexe V.A8). In kind it is physicochemical. The settings on record: reversed-phase HPLC column (C 18), pH 2.3, C 18, 43° C., preparation examples. As for the experimental part:
The log P values given in the preparation examples and tables above are determined in accordance with EEC Directive 79/831 Annexe V.A8 by HPLC (High Performance Liquid Chromatography) on a reversed-phase column (C 18). Temperature: 43° C.
The determination in the acidic range is carried out at pH 2.3 using the mobile phases 0.1% aqueous phosphoric acid and acetonitrile; linear gradient from 10% acetonitrile to 90% acetonitrile.
Calibration was carried out using unbranched alkan-2-ones (with 3 to 16 carbon atoms) with known log P values (determination of the log P values by the retention times using linear interpolation between two successive alkanones).

The subject of another series is Podosphaera leucotricha. Briefly: Podosphaera test (apple)/protective. In kind it is in vivo. The settings on record: protective, application rate 100 g/ha, evaluation 10 days after inoculation. On the procedure:
(§1) • Solvents: 24.5 parts by weight of acetone • 24.5 parts by weight of dimethylacetamide • Emulsifier: 1 part by weight of alkylaryl polyglycol ether
(§2) To produce a suitable preparation of active compound, 1 part by weight of active compound is mixed with the stated amounts of solvents and emulsifier, and the concentrate is diluted with water to the desired concentration.
To test for protective activity, young plants are sprayed with the preparation of active compound at the stated application rate. After the spray coating has dried on, the plants are inoculated with an aqueous spore suspension of the apple mildew pathogen Podosphaera leucotricha. The plants are then placed in a greenhouse at about 23° C. and a relative atmospheric humidity of about 70%.
(§3) Evaluation is carried out 10 days after the inoculation. 0% means an efficacy which corresponds to that of the control, whereas an efficacy of 100% means that no infection is observed.

Another series concerns Venturia inaequalis. Briefly: Venturia test (apple)/protective. It counts as in vivo. The settings on record: protective, application rate 100 g/ha, evaluation 10 days after inoculation. As for the experimental part:
as §1, §2
To test for protective activity, young plants are sprayed with the preparation of active compound at the stated application rate. After the spray coating has dried on, the plants are inoculated with an aqueous conidia suspension of the apple scab pathogen Venturia inaequalis and then remain in an incubation cabinet at about 20° C. and 100% relative atmospheric humidity for one day.
The plants are then placed in a greenhouse at about 21° C. and a relative atmospheric humidity of about 90%.
as §3

Another series has as its system Botrytis cinerea. Briefly: Botrytis test (bean)/protective. It counts as in vivo. The settings on record: protective, application rate 500 g/ha, evaluation 2 days after inoculation. On the procedure: as §1
To produce a suitable preparation of active compound, 1 part by weight of active compound is mixed with the stated amounts of solvent and emulsifier, and the concentrate is diluted with water to the desired concentration.
To test for protective activity, young plants are sprayed with the preparation of active compound at the stated application rate. After the spray coating has dried on, 2 small pieces of agar colonized by Botrytis cinerea are placed onto each leaf. The inoculated plants are placed in a dark chamber at about 20° C. and 100% relative atmospheric humidity.
2 days after the inoculation, the size of the infected areas on the leaves is evaluated. 0% means an efficacy which corresponds to that of the control, whereas an efficacy of 100% means that no infection is observed.

The structures appear in SMILES notation.

On to `Cc1nn(C)c(F)c1C(=O)N(C)c1ccccc1C(C)CC(C)(C)C` (centres unmarked), for which, in the series with Puccinia recondita, the Efficacy in % came to 100%.
Compound `Cc1nn(C)c(F)c1C(=O)N(C)c1ccccc1C(C)CC(C)C` (centres unmarked) came in with an Efficacy in % with Puccinia recondita of 100%.
In turn, `CC(CC(C)(C)C)c1ccccc1N(C)C(=O)c1c(C(F)(F)F)nn(C)c1F` (centres unmarked) registered an Efficacy in % in the series with Sphaerotheca fuliginea of 100%.
For the compound `CC(=O)N(C(=O)c1c(C(F)(F)F)nn(C)c1F)c1ccccc1C(C)CC(C)(C)C` (centres unmarked) [Example 1, N-acetyl-5-fluoro-1-methyl-3-(trifluoromethyl)-N-[2-(1,3,3-trimethylbutyl)phenyl]-1H-pyrazole-4-carboxamide], the chromatographic logP (usually lipophilicity estimated from chromatographic retention) in series [1] is 4.63.
In the case of `CCOC(=O)C(=O)N(C(=O)c1c(C)nn(C)c1F)c1ccccc1C(C)CC(C)(C)C` (centres unmarked) [Example 2, ethyl {[(5-fluoro-1,3-dimethyl-1H-pyrazol-4-yl)carbonyl][2-(1,3,3-trimethylbutyl)phenyl]amino}(oxo)acetate], the chromatographic logP in series [1] was found to be 4.4.
Consider `CC(=O)Nc1ccccc1C(C)CC(C)C` (centres unmarked) [III-1, N-[2-(1,3-dimethylbutyl)phenyl]acetamide], for which, in series [1], the chromatographic logP was determined as 2.65.
Regarding `COCN(C(=O)c1c(C(F)(F)F)nn(C)c1F)c1ccccc1C(C)CC(C)(C)C` (centres unmarked) [drawing 19], the Efficacy in % in the series with Podosphaera leucotricha is given as 98%.
With `CCOC(=O)C(=O)N(C(=O)c1c(C)nn(C)c1F)c1ccccc1C(C)CC(C)(C)C` (centres unmarked) [drawing 20], the Efficacy in % with Podosphaera leucotricha came out at 97%.
As for `COCN(C(=O)c1c(C(F)(F)F)nn(C)c1F)c1ccccc1C(C)CC(C)(C)C` (centres unmarked) [drawing 21], the Efficacy in % in the series with Venturia inaequalis is reported as 100%.
`CCOC(=O)C(=O)N(C(=O)c1c(C)nn(C)c1F)c1ccccc1C(C)CC(C)(C)C` (centres unmarked) [drawing 22]: in the series with Venturia inaequalis, the Efficacy in % was 100%.
Consider `COCN(C(=O)c1c(C(F)(F)F)nn(C)c1F)c1ccccc1C(C)CC(C)(C)C` (centres unmarked) [drawing 23], for which the Efficacy in % with Botrytis cinerea is reported as 100%.
`CCOC(=O)C(=O)N(C(=O)c1c(C)nn(C)c1F)c1ccccc1C(C)CC(C)(C)C` (centres unmarked) [drawing 24]: in the series on Botrytis cinerea, the Efficacy in % is given as 97%.
In turn, `COCN(C(=O)c1c(C(F)(F)F)nn(C)c1F)c1ccccc1C(C)CC(C)(C)C` (centres unmarked) [drawing 25] came in with an Efficacy in % with Puccinia recondita of 100%.
Compound `COCN(C(=O)c1c(C(F)(F)F)nn(C)c1F)c1ccccc1C(C)CC(C)(C)C` (centres unmarked) [drawing 29] came in with an Efficacy in % in the series with Sphaerotheca fuliginea of 100%.
